compound: CO[C@@H]1[C@H](N(C)C(=O)c2ccccc2)C[C@H]2O[C@]1(C)n1c3ccccc3c3c4c(c5c6ccccc6n2c5c31)C(=O)NC4 [Midostaurin] + Cc1nc(Nc2ncc(C(=O)Nc3c(C)cccc3Cl)s2)cc(N2CCN(CCO)CC2)n1 [Dasatinib] (partner 0.075 µM); experiment: relative viability (nuclei count vs DMSO), 5 days (fraction); higher = more cells survive; conditions: first compound 0.1 µM
How it was run: (§1)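 Cells from lung cancer lines were seeded into 1536-well plates and, one day later, dosed by pin tool. Treatments were either a single drug or a fixed dose of an anchor drug with five library-drug doses (not always all listed) in √10 steps. After 5 days, nuclei were stained in a one-step fixation (final 0.05% Triton X-100, 1% formaldehyde, 1 ug/ml Hoechst) and counted on 4× images, and relative viability is the treated-to-vehicle nuclei ratio, as the median of duplicate plates.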

Cell Line | relative viability
NCI-H727 | 0.462
NCI-H1650 | 0.254
NCI-H1993 | 0.668
SW 1573 | 0.456
NCI-H838 | 0.292
LCLC-103H | 0.389
NCI-H520 | 0.272
NCI-H2126 | 0.596
EMC-BAC-2 | 0.273
NCI-H2085 | 0.26
HCC-366 | 0.537
NCI-H1666 | 0.716
NCI-H596 | 0.646
LK-2 | 0.393
NCI-H2087 | 0.917
SK-MES-1 | 0.393
H3255 | 0.37
COR-L23 | 0.368
COR-L 105 | 0.385
LOU-NH91 | 0.606
ChaGo-K-1 | 0.541
NCI-H2170 | 0.512
HCC-78 | 0.373
NCI-H2009 | 0.254
NCI-H661 | 0.852
SK-LU-1 | 0.176
NCI-H2228 | 0.534
NCI-H1792 | 0.669
NCI-H2023 | 0.539
NCI-H1563 | 0.43

same assay, conditions: first compound 0.3162 µM

Cell Line | relative viability
NCI-H2342 | 0.327
NCI-H1623 | 0.652
NCI-H727 | 0.383
NCI-H1650 | 0.254
NCI-H1993 | 0.419
SW 1573 | 0.161
NCI-H838 | 0.288
LCLC-103H | 0.416
NCI-H520 | 0.203
NCI-H2126 | 0.644
EMC-BAC-2 | 0.248
NCI-H2085 | 0.236
HCC-366 | 0.638
NCI-H1666 | 0.772
NCI-H596 | 0.729
LK-2 | 0.501

Cell Line | relative viability
NCI-H2087 | 0.777
SK-MES-1 | 0.237
H3255 | 0.354
COR-L23 | 0.27
COR-L 105 | 0.285
LOU-NH91 | 0.582
ChaGo-K-1 | 0.689
NCI-H2170 | 0.735
HCC-78 | 0.219
NCI-H2009 | 0.21
NCI-H661 | 0.737
SK-LU-1 | 0.175
NCI-H2228 | 0.526
NCI-H1792 | 0.611
NCI-H2023 | 0.443
NCI-H1563 | 0.465

compound: CO[C@@H]1[C@H](N(C)C(=O)c2ccccc2)C[C@H]2O[C@]1(C)n1c3ccccc3c3c4c(c5c6ccccc6n2c5c31)C(=O)NC4 [Midostaurin] + NC(=O)Nc1cc(-c2cccc(F)c2)sc1C(=O)N[C@H]1CCCNC1 [AZD7762] (partner 0.2 µM); experiment: as above; conditions: first compound 0.01 µM
How it was run: as §1

Cell Line | relative viability
NCI-H2342 | 0.558
NCI-H727 | 0.616
NCI-H1703 | 0.141
NCI-H1993 | 0.762
NCI-H838 | 0.843
LCLC-103H | 0.789
NCI-H2126 | 0.95
EMC-BAC-2 | 1.08
NCI-H2085 | 0.938
HCC-366 | 0.235
NCI-H1666 | 0.881
NCI-H596 | 1.25
LK-2 | 0.494
NCI-H2087 | 1.39
NCI-H1648 | 0.766
H3255 | 0.857
LOU-NH91 | 0.791
ChaGo-K-1 | 0.895
NCI-H2170 | 0.891
HCC-44 | 0.961
HCC-78 | 0.682
NCI-H1792 | 0.786

same assay, conditions: first compound 0.03162 µM

Cell Line | relative viability
NCI-H2342 | 0.503
NCI-H727 | 0.696
NCI-H1703 | 0.115
NCI-H1993 | 0.77
NCI-H838 | 0.892
LCLC-103H | 0.782
NCI-H2126 | 0.926
EMC-BAC-2 | 1.03
NCI-H2085 | 0.998
HCC-366 | 0.373
NCI-H1666 | 0.804
NCI-H596 | 1.13
LK-2 | 0.408
NCI-H2087 | 1.16
H3255 | 0.786
LOU-NH91 | 0.724
ChaGo-K-1 | 0.837
NCI-H2170 | 0.85
HCC-44 | 0.978
HCC-78 | 1.09
NCI-H1792 | 0.725

same assay, conditions: first compound 0.1 µM

Cell Line | relative viability
NCI-H2342 | 0.489
NCI-H727 | 0.947
NCI-H1703 | 0.123
NCI-H1993 | 0.699
NCI-H838 | 0.848
LCLC-103H | 0.682
NCI-H2126 | 0.995
EMC-BAC-2 | 1.04
NCI-H2085 | 0.93
HCC-366 | 0.273
NCI-H1666 | 0.911
NCI-H596 | 1.1
LK-2 | 0.346
NCI-H2087 | 1.36
H3255 | 0.915
LOU-NH91 | 0.778
ChaGo-K-1 | 0.677
NCI-H2170 | 0.866
HCC-44 | 0.998
HCC-78 | 0.644
NCI-H1792 | 0.67

same assay, conditions: first compound 0.3162 µM

Cell Line | relative viability
NCI-H2342 | 0.451
NCI-H727 | 0.639
NCI-H1703 | 0.12
NCI-H1993 | 0.5
NCI-H838 | 0.865
LCLC-103H | 0.787
NCI-H2126 | 1.03
EMC-BAC-2 | 1.08
NCI-H2085 | 0.623
HCC-366 | 0.0975
NCI-H1666 | 0.778
NCI-H596 | 1.05
LK-2 | 0.679
NCI-H2087 | 1.03
NCI-H1648 | 0.656
H3255 | 0.89
LOU-NH91 | 0.809
ChaGo-K-1 | 0.946
NCI-H2170 | 1.14
HCC-44 | 0.986
HCC-78 | 0.483
NCI-H1792 | 0.176
